Data as given in publication PMC8071274 (International Journal of Molecular Sciences, 2021).
Where a SMILES comes first, the peptide text is derived from it. The star is where a group is joined. For = O=C*

Tested on: differentiated HL-60 cells
Format: cell-based, human
Details: 72 h
Protocol: HEK-293 cells (American Type Culture Collection, Manassas, VA, USA) were maintained in DMEM (Thermo Fisher Scientific, Waltham, MA, USA) containing 10% FBS (Thermo Fisher Scientific) in a humidified atmosphere at 5% CO2 and 37 °C. Human acute leukemia-derived HL-60 cells (RIKEN Cell Bank, Ibaraki, Japan) were cultured in RPMI-1640 medium (Thermo Fisher Scientific) containing 10% FBS in a humidified atmosphere at 5% CO2 and 37 °C. HL-60 cells were treated with 500 μM dibutyryl-cAMP (Sigma-Aldrich, St. Louis, MO, USA) for 72 h to differentiate the cells into neutrophilic/granulocytic cells as described elsewhere. The ability of MCT-2-related peptides to activate HL-60 cells differentiated into neutrophilic/granulocytic cells was evaluated by stimulation of β-hexosaminidase secretion from the cells. Briefly, differentiated HL-60 cells were washed 3 times with ice-cold HEPES-buffered Hank’s solution (HBHS; 10 mM HEPES, 136.9 mM NaCl, 5.4 mM KCl, 1.2 mM CaCl2, 0.44 mM KH2PO4, 0.49 mM MgCl2, 0.41 mM MgSO4, 0.34 mM Na2HPO4, 5.5 mM glucose, 4.2 mM NaHCO3, and 0.1% BSA, pH 7.4). The cells were resuspended in HBHS at a density of 5.6 × 10^6 cells/mL, and DNase I (Sigma-Aldrich) and cytochalasin B (Sigma-Aldrich) were each added at a final concentration of 5 μg/mL. The cell suspension in each tube (5.0 × 10^5 cells/90 μL) was preincubated at 37 °C for 10 min and stimulated with 10 μL synthetic peptide solution at 37 °C for 10 min. The inhibitory effects of inhibitors against FPR1 [CysH (Sigma-Aldrich)] and FPR2 [PBP10 (Tocris Bioscience, Bristol, UK)] on β-hexosaminidase release induced by MCT-2 and its derivatives were also evaluated in the differentiated HL-60 cells; each cell suspension prepared as above (90 μL) was transferred to a tube (5.0 × 10^5 cells/tube) with 5 μL inhibitor solution for FPR1 (CysH) or FPR2 (PBP10). Each tube was then preincubated at 37 °C for 10 min and stimulated with 5 μL synthetic peptide solution at 37 °C for 10 min. After stimulation, 200 μL ice-cold reaction quenching buffer (25 mM Tris, 123 mM NaCl, and 2.7 mM KCl, pH 7.4) was added to each cell suspension to stop the reaction. Thereafter, these tubes were centrifuged at 4 °C and 2300× g for 1 min, and each supernatant was transferred into a new tube. β-Hexosaminidase activity in the supernatant was measured as described previously. Briefly, 90 μL supernatant was transferred to each well of a 96-well microtiter plate, and 60 μL of a substrate solution for β-hexosaminidase [10 mM p-nitrophenyl N-acetyl-β-D-glucosaminide (Sigma-Aldrich), 40 mM citrate, and 70 mM NaHPO4, pH 4.5] was added to initiate the enzyme reaction. After incubation of the plate at 37 °C for 1 h, 100 μL of 400 mM glycine (pH 10.7) was added to stop the reaction. The absorbance at 415 nm for the resulting p-nitrophenol and at 490 nm for the reference was measured using a microtiter plate reader (Viento XS; BioTek Instruments, Winooski, VT, USA). The ability of each peptide to induce β-hexosaminidase release was expressed as a percentage of enzyme secretion promoted by 10 μM MCT-2(1–15) that induced the maximum response for the elucidation of full or partial agonists to the activity of MCT-2(1–15) (Figure 2 and Figure 4, Table 2) or a percentage of the total enzyme activity, which was the enzyme activity released after disruption of the cells with 0.05% Triton X-100 (Figure 3).

Row | Structure (SMILES) | EC50 [nM]
1 | CSCC[C@H](NC=O)C(=O)N[C@H](C(=O)N1CCC[C@H]1C(=O)N[C@@H](CCSC)C(=O)N[C@@H](CCCNC(=N)N)C(=O)O)[C@@H](C)O [MCT-2(1–5)] (For-MTPMR-OH) | 26000
2 | CSCC[C@H](NC=O)C(=O)N[C@H](C(=O)N1CCC[C@H]1C(=O)N[C@@H](CCSC)C(=O)N[C@@H](CCCNC(=N)N)C(=O)N[C@@H](CCCCN)C(=O)O)[C@@H](C)O [MCT-2(1–6)] (For-MTPMRK-OH) | 203000
3 | CC[C@H](C)[C@H](NC(=O)[C@H](CCCCN)NC(=O)[C@H](CCCNC(=N)N)NC(=O)[C@H](CCSC)NC(=O)[C@@H]1CCCN1C(=O)[C@@H](NC(=O)[C@H](CCSC)NC=O)[C@@H](C)O)C(=O)O [MCT-2(1–7)] (For-MTPMRKI-OH) | 35500
4 | CC[C@H](C)[C@H](NC(=O)[C@H](CCCCN)NC(=O)[C@H](CCCNC(=N)N)NC(=O)[C@H](CCSC)NC(=O)[C@@H]1CCCN1C(=O)[C@@H](NC(=O)[C@H](CCSC)NC=O)[C@@H](C)O)C(=O)N[C@@H](CC(N)=O)C(=O)O [MCT-2(1–8)] (For-MTPMRKIN-OH) | 41300
5 | CC[C@H](C)[C@H](NC(=O)[C@H](CCCCN)NC(=O)[C@H](CCCNC(=N)N)NC(=O)[C@H](CCSC)NC(=O)[C@@H]1CCCN1C(=O)[C@@H](NC(=O)[C@H](CCSC)NC=O)[C@@H](C)O)C(=O)N[C@@H](CC(N)=O)C(=O)N1CCC[C@H]1C(=O)O [MCT-2(1–9)] (For-MTPMRKINP-OH) | 10800
6 | CC[C@H](C)[C@H](NC(=O)[C@H](CCCCN)NC(=O)[C@H](CCCNC(=N)N)NC(=O)[C@H](CCSC)NC(=O)[C@@H]1CCCN1C(=O)[C@@H](NC(=O)[C@H](CCSC)NC=O)[C@@H](C)O)C(=O)N[C@@H](CC(N)=O)C(=O)N1CCC[C@H]1C(=O)N[C@@H](CC(C)C)C(=O)N[C@@H](CCSC)C(=O)N[C@@H](CCCCN)C(=O)O [MCT-2(1–12)] (For-MTPMRKINPLMK-OH) | 633 ± 153
7 | CC[C@H](C)[C@H](NC(=O)[C@H](CCCCN)NC(=O)[C@H](CCCNC(=N)N)NC(=O)[C@H](CCSC)NC(=O)[C@@H]1CCCN1C(=O)[C@@H](NC(=O)[C@H](CCSC)NC=O)[C@@H](C)O)C(=O)N[C@@H](CC(N)=O)C(=O)N1CCC[C@H]1C(=O)N[C@@H](CC(C)C)C(=O)N[C@@H](CCSC)C(=O)N[C@@H](CCCCN)C(=O)N[C@@H](CC(C)C)C(=O)O [MCT-2(1–13)] (For-MTPMRKINPLMKL-OH) | 186 ± 33.6
8 | CC[C@H](C)[C@H](NC(=O)[C@H](CC(C)C)NC(=O)[C@H](CCCCN)NC(=O)[C@H](CCSC)NC(=O)[C@H](CC(C)C)NC(=O)[C@@H]1CCCN1C(=O)[C@H](CC(N)=O)NC(=O)[C@@H](NC(=O)[C@H](CCCCN)NC(=O)[C@H](CCCNC(=N)N)NC(=O)[C@H](CCSC)NC(=O)[C@@H]1CCCN1C(=O)[C@@H](NC(=O)[C@H](CCSC)NC=O)[C@@H](C)O)[C@@H](C)CC)C(=O)O [MCT-2(1–14)] (For-MTPMRKINPLMKLI-OH) | 96.7 ± 17.6
9 | CC[C@H](C)[C@H](NC(=O)[C@H](CC(C)C)NC(=O)[C@H](CCCCN)NC(=O)[C@H](CCSC)NC(=O)[C@H](CC(C)C)NC(=O)[C@@H]1CCCN1C(=O)[C@H](CC(N)=O)NC(=O)[C@@H](NC(=O)[C@H](CCCCN)NC(=O)[C@H](CCCNC(=N)N)NC(=O)[C@H](CCSC)NC(=O)[C@@H]1CCCN1C(=O)[C@H](C)NC(=O)[C@H](CCSC)NC=O)[C@@H](C)CC)C(=O)N[C@@H](CC(N)=O)C(=O)O [[Ala^2]MCT-2] (For-MAPMRKINPLMKLIN-OH) | 0.61 ± 0.07
10 | CC[C@H](C)[C@H](NC(=O)[C@H](CC(C)C)NC(=O)[C@H](CCCCN)NC(=O)[C@H](CCSC)NC(=O)[C@H](CC(C)C)NC(=O)[C@@H]1CCCN1C(=O)[C@H](CC(N)=O)NC(=O)[C@@H](NC(=O)[C@H](CCCCN)NC(=O)[C@H](CCCNC(=N)N)NC(=O)[C@H](CCSC)NC(=O)[C@H](C)NC(=O)[C@@H](NC(=O)[C@H](CCSC)NC=O)[C@@H](C)O)[C@@H](C)CC)C(=O)N[C@@H](CC(N)=O)C(=O)O [[Ala^3]MCT-2] (For-MTAMRKINPLMKLIN-OH) | 16.3 ± 0.29
11 | CC[C@H](C)[C@H](NC(=O)[C@H](CC(C)C)NC(=O)[C@H](CCCCN)NC(=O)[C@H](CCSC)NC(=O)[C@H](CC(C)C)NC(=O)[C@@H]1CCCN1C(=O)[C@H](CC(N)=O)NC(=O)[C@H](C)NC(=O)[C@H](CCCCN)NC(=O)[C@H](CCCNC(=N)N)NC(=O)[C@H](CCSC)NC(=O)[C@@H]1CCCN1C(=O)[C@@H](NC(=O)[C@H](CCSC)NC=O)[C@@H](C)O)C(=O)N[C@@H](CC(N)=O)C(=O)O [[Ala^7]MCT-2] (For-MTPMRKANPLMKLIN-OH) | 94.7 ± 3.21

Now from value to compound:

Row | EC50 [nM] | Structure (SMILES)
12 | > 10000 | CC[C@H](C)[C@H](NC(=O)[C@H](CC(C)C)NC(=O)[C@H](CCCCN)NC(=O)[C@H](CCSC)NC(=O)[C@H](CC(C)C)NC(=O)[C@@H]1CCCN1C(=O)[C@H](CC(N)=O)NC(=O)[C@@H](NC(=O)[C@H](CCCCN)NC(=O)[C@H](CCCNC(=N)N)NC(=O)[C@H](CCSC)NC(=O)[C@@H]1CCCN1C(=O)[C@@H](NC(=O)[C@H](C)NC=O)[C@@H](C)O)[C@@H](C)CC)C(=O)N[C@@H](CC(N)=O)C(=O)O [[Ala^1]MCT-2] (For-ATPMRKINPLMKLIN-OH)
13 | 68 ± 2.65 | CC[C@H](C)[C@H](NC(=O)[C@H](CC(C)C)NC(=O)[C@H](CCCCN)NC(=O)[C@H](CCSC)NC(=O)[C@H](CC(C)C)NC(=O)[C@@H]1CCCN1C(=O)[C@H](CC(N)=O)NC(=O)[C@@H](NC(=O)[C@H](CCCCN)NC(=O)[C@H](CCCNC(=N)N)NC(=O)[C@H](C)NC(=O)[C@@H]1CCCN1C(=O)[C@@H](NC(=O)[C@H](CCSC)NC=O)[C@@H](C)O)[C@@H](C)CC)C(=O)N[C@@H](CC(N)=O)C(=O)O [[Ala^4]MCT-2] (For-MTPARKINPLMKLIN-OH)
14 | 61.3 ± 0.58 | CC[C@H](C)[C@H](NC(=O)[C@H](CC(C)C)NC(=O)[C@H](CCCCN)NC(=O)[C@H](CCSC)NC(=O)[C@H](CC(C)C)NC(=O)[C@@H]1CCCN1C(=O)[C@H](CC(N)=O)NC(=O)[C@@H](NC(=O)[C@H](CCCCN)NC(=O)[C@H](C)NC(=O)[C@H](CCSC)NC(=O)[C@@H]1CCCN1C(=O)[C@@H](NC(=O)[C@H](CCSC)NC=O)[C@@H](C)O)[C@@H](C)CC)C(=O)N[C@@H](CC(N)=O)C(=O)O [[Ala^5]MCT-2] (For-MTPMAKINPLMKLIN-OH)
15 | 64 ± 3 | CC[C@H](C)[C@H](NC(=O)[C@H](C)NC(=O)[C@H](CCCNC(=N)N)NC(=O)[C@H](CCSC)NC(=O)[C@@H]1CCCN1C(=O)[C@@H](NC(=O)[C@H](CCSC)NC=O)[C@@H](C)O)C(=O)N[C@@H](CC(N)=O)C(=O)N1CCC[C@H]1C(=O)N[C@@H](CC(C)C)C(=O)N[C@@H](CCSC)C(=O)N[C@@H](CCCCN)C(=O)N[C@@H](CC(C)C)C(=O)N[C@H](C(=O)N[C@@H](CC(N)=O)C(=O)O)[C@@H](C)CC [[Ala^6]MCT-2] (For-MTPMRAINPLMKLIN-OH)
16 | 31 ± 3.97 | CC[C@H](C)[C@H](NC(=O)[C@H](CCCCN)NC(=O)[C@H](CCCNC(=N)N)NC(=O)[C@H](CCSC)NC(=O)[C@@H]1CCCN1C(=O)[C@@H](NC(=O)[C@H](CCSC)NC=O)[C@@H](C)O)C(=O)N[C@@H](C)C(=O)N1CCC[C@H]1C(=O)N[C@@H](CC(C)C)C(=O)N[C@@H](CCSC)C(=O)N[C@@H](CCCCN)C(=O)N[C@@H](CC(C)C)C(=O)N[C@H](C(=O)N[C@@H](CC(N)=O)C(=O)O)[C@@H](C)CC [[Ala^8]MCT-2] (For-MTPMRKIAPLMKLIN-OH)
17 | 73 ± 13.3 | CC[C@H](C)[C@H](NC(=O)[C@H](CC(C)C)NC(=O)[C@H](CCCCN)NC(=O)[C@H](CCSC)NC(=O)[C@H](C)NC(=O)[C@@H]1CCCN1C(=O)[C@H](CC(N)=O)NC(=O)[C@@H](NC(=O)[C@H](CCCCN)NC(=O)[C@H](CCCNC(=N)N)NC(=O)[C@H](CCSC)NC(=O)[C@@H]1CCCN1C(=O)[C@@H](NC(=O)[C@H](CCSC)NC=O)[C@@H](C)O)[C@@H](C)CC)C(=O)N[C@@H](CC(N)=O)C(=O)O [[Ala^10]MCT-2] (For-MTPMRKINPAMKLIN-OH)
